Literature values in patent US20200360403A1, “OPTHALMIC COMPOSITIONS FOR INHIBITING CLOUDING OF THE OCULAR LENS” (priority 2019, published 2020).

Legend:
cffl-crystallins = conditions: compared to ATP
aggregated lens protein = conditions: all studies by Daszynski et al.

Row | Structure (SMILES) | binding scores for good predictive binding to the crystallins (cffl-crystallins) | anti-cataractogenic activity or binding of aggregated lens protein to dissolve cataracts (aggregated lens protein)
1 | C[C@H](CCCC(C)(C)O)[C@H]1CC[C@H]2[C@@H]3CC=C4C[C@@H](O)CC[C@]4(C)[C@H]3CC[C@]12C [25-hydroxycholesterol] | failed to reach the acceptable threshold binding scores | failed to provide evidence
2 | CC(C)=CCC[C@@H](C)[C@H]1CC[C@@]2(C)C3=C(CC[C@]12C)[C@@]1(C)CC[C@H](O)C(C)(C)[C@@H]1CC3 [lanosterol] | failed to reach the acceptable threshold binding scores | failed to provide evidence
